From publication PMC9919615, “Generation of Aurachin Derivatives by Whole-Cell Biotransformation and Evaluation of Their Antiprotozoal Properties” (Molecules, 2023)
Where two headings read alike, the source gives them in different places.

Tests used:
T. cruzi Tulahuen C4 = test: Antitrypanosomal assay T. cruzi (beta-galactosidase reporter strain on rat skeletal myoblasts); type: cell-based, Trypanosoma cruzi; details: intracellular amastigotes, 4 days on rat skeletal myoblasts
Description: (§1) Serial dilution assays with 11 dilution steps in 96-well plates were used in order to determine the IC50 values of the generated aurachin D analogs against P. falciparum NF54 (erythrocytic stages), T. brucei rhodesiense STIB 900 (bloodstream forms), T. cruzi Tulahuen C4 (intracellular amastigotes) and L. donovani MHOM-ET-67/L82 (axenic amastigotes). Potential cytotoxic effects were evaluated with L6 myoblast cells (Table 2).
Activity against Trypanosoma cruzi was evaluated according to a procedure described by Buckner and coworkers. The strain Tulahuen C4 of T. cruzi, which had been transfected with the β-galactosidase lacZ gene, was cultivated for 4 days on rat skeletal myoblasts (5% CO2, 37 °C) in the presence of drug. For measurement of the IC50, the substrate chlorophenol red-β-D-galactopyranoside was added. The color reaction that developed during the following 2–4 h was quantified photometrically employing an ELISA reader. Benznidazole was included in each test series as positive control.

P. falciparum NF54 = test: Antiplasmodial assay (3H-hypoxanthine incorporation); type: cell-based, Plasmodium falciparum; details: erythrocytic stages, 48 h drug exposure + 24 h with 3H-hypoxanthine
Description: as §1
Antiplasmodial activity was determined against the NF54 strain of Plasmodium falciparum using a modified ^3H-hypoxanthine incorporation assay. Briefly, infected erythrocytes were exposed to serial drug dilutions in microtiter plates for 48 h at 37 °C in a gas mixture with reduced oxygen and elevated carbon dioxide concentrations. ^3H hypoxanthine was added to each well, and after further incubation for 24 h, the wells were harvested on glass fiber filters and counted in a liquid scintillation counter. From the sigmoidal inhibition curve, the IC50 value was calculated. Chloroquine was used as positive control in each test series.

[1] = system: T. brucei rhodesiense STIB 900; test: Antitrypanosomal assay T. brucei rhodesiense (resazurin viability); type: cell-based, Trypanosoma brucei rhodesiense; details: read-out: IC50 T. brucei rhodesiense STIB 900
Description: as §1
Activity against Trypanosoma brucei rhodesiense (strain STIB 900) was evaluated according to a previously established protocol. Parasites were grown axenically in culture medium supplemented with horse serum. Following a 3-day exposure to test compounds, the viability of tryptomastigote parasites was quantified using the dye resazurin by monitoring the reductive environment of living cells. Fluorescence development was expressed as percentage of the control, and IC50 values were calculated. Melarsoprol was included as positive control.

[2] = system: L. donovani MHOM-ET-67/L82; test: Antileishmanial assay (axenic amastigotes, resazurin viability); type: cell-based, Leishmania donovani; details: 3-day exposure, pH 5.4
Description: Serial dilution assays with 11 dilution steps in 96-well plates were used in order to determine the IC50 values of the generated aurachin D analogs against P. falciparum NF54 (erythrocytic stages), T. brucei rhodesiense STIB 900 (bloodstream forms), T. cruzi Tulahuen C4 (intracellular amastigotes) and L. donovani MHOM-ET-67/L82 (axenic amastigotes). Potential cytotoxic effects were evaluated with L6 myoblast cells (Table 2). Evaluation of antileishmanial activity was carried out with axenically grown amastigotes of Leishmania donovani MHOM-ET-67/L82, as previously described. For this, the amastigotes were cultured at 37 °C and pH 5.4 in SM medium supplemented with 10% heat-inactivated fetal bovine serum under an atmosphere of 5% CO2 in air. Following a 3-day exposure to test compounds, the viability of amastigote parasites was quantified using the dye resazurin by monitoring the reductive environment of living cells. Fluorescence development was expressed as percentage of the control, and IC50 values were calculated. Miltefosine was used as positive control.

Rat Myoblast L6 Cells = test: Cytotoxicity assay with L6 cells (resazurin viability); type: cell-based
Description: as §1
Cytotoxicity was tested with L6 cells (ATCC CRL-1458), a […] cell line derived from rat skeletal myoblasts, as previously described. For this, L6 cells were grown in culture medium supplemented with heat-inactivated fetal bovine serum under an atmosphere of 5% CO2 in air. Following a 3-day exposure to test compounds, the viability of L6 cells was quantified using the dye resazurin by monitoring the reductive environment of living cells. Fluorescence development was expressed as percentage of the control, and IC50 values were calculated. Podophyllotoxin was used as reference.

[3] = Trypanosoma cruzi, TULAHUEN, Myoblast, 96 h
[4] = Plasmodium falciparum, NF54, 72 h
[5] = Trypanosoma brucei, 72 h, bloodstream forms, 3-day exposure
[6] = Rattus norvegicus, L6, 72 h, cytotoxicity, 3-day exposure, read-out: IC50 Rat Myoblast L6 Cells
[7] = bloodstream forms, 3-day exposure
[8] = cytotoxicity, 3-day exposure, read-out: IC50 Rat Myoblast L6 Cells

Compound	IC50 (P. falciparum NF54) [µM]	IC50 [1, 7] [µM]	IC50 (T. cruzi Tulahuen C4) [µM]	IC50 [2] [µM]	IC50 (Rat Myoblast L6 Cells; [8]) [µM]	also measured
O=C(Cn1ccnc1[N+](=O)[O-])NCc1ccccc1 [Benznidazole, reference compound]	–	–	–	–	–	IC50 (T. cruzi Tulahuen C4; [3]): 2.5 µM
CC(C)=CCC/C(C)=C/CC/C(C)=C/Cc1c(C)[nH]c2ccccc2c1=O [Compound 1, aurachin D]	–	–	–	–	–	IC50 (P. falciparum NF54; [4]): 0.012 µM; IC50 [1, 5]: 4.5 µM; IC50 (T. cruzi Tulahuen C4; [3]): 1.3 µM; IC50 ([2]; Leishmania donovani, 72 h): 0.044 µM; IC50 (Rat Myoblast L6 Cells; [6]): 131 µM; IC50 (Rat Myoblast L6 Cells; Rattus norvegicus, L6, cytotoxicity, read-out: IC50 rat skeletal myoblasts): 131 µM
CC(C)=CCC/C(C)=C/CC/C(C)=C/Cc1c[nH]c2ccccc2c1=O [Compound 2, 2-Desmethyl aurachin D]	0.006	9.5	2.4	1.5	20.4	–
CC(C)=CCC/C(C)=C/CC/C(C)=C/Cc1c(C)[nH]c2ccc(C)cc2c1=O [Compound 3, 6-Methyl aurachin D]	0.514	43.2	7.6	4.3	18.6	–
CC(C)=CCC/C(C)=C/CC/C(C)=C/Cc1c(C)[nH]c2cc(C)ccc2c1=O [Compound 4, 7-Methyl aurachin D]	–	–	–	–	–	IC50 (P. falciparum NF54; [4]): 0.007 µM; IC50 [1, 5]: 164 µM; IC50 (T. cruzi Tulahuen C4; [3]): 45.7 µM; IC50 ([2]; Leishmania donovani, 72 h): 9.1 µM; IC50 (Rat Myoblast L6 Cells; [6]): 65.3 µM
COc1ccc2[nH]c(C)c(C/C=C(\C)CC/C=C(\C)CCC=C(C)C)c(=O)c2c1 [Compound 5, 6-Methoxy aurachin D]	0.866	40.3	19.3	7.3	118	–
COc1ccc2c(=O)c(C/C=C(\C)CC/C=C(\C)CCC=C(C)C)c(C)[nH]c2c1 [Compound 6, 7-Methoxy aurachin D]	0.089	44.8	21.9	17.1	80.8	–
CC(C)=CCC/C(C)=C/CC/C(C)=C/Cc1c(C)[nH]c2ccc(F)cc2c1=O [Compound 7, 6-Fluoro aurachin D]	0.061	37.2	1.8	0.617	126	–
CC(C)=CCC/C(C)=C/CC/C(C)=C/Cc1c(C)[nH]c2ccc(Cl)cc2c1=O [Compound 8, 6-Chloro aurachin D]	0.021	37.4	11.2	6.2	118	–
CC(C)=CCC/C(C)=C/CC/C(C)=C/Cc1c(C)[nH]c2cc(Cl)ccc2c1=O [Compound 9, 7-Chloro aurachin D]	0.07	105	41.8	9.2	54.7	–
CC(C)=CCC/C(C)=C/CC/C(C)=C/Cc1c(C)[nH]c2ccc(Br)cc2c1=O [Compound 10, 6-Bromo aurachin D]	0.119	40.2	22.6	13.9	108	–
Nc1nc(N)nc(Nc2ccc([As]3SCC(CO)S3)cc2)n1 (stereo not shown) [Melarsoprol, reference compound]	–	–	–	–	–	IC50 ([1]; Trypanosoma brucei, 72 h): 0.013 µM
CCCCCCCCCCCCCCCCOP(=O)([O-])OCC[N+](C)(C)C [Miltefosine, reference compound]	–	–	–	–	–	IC50 ([2]; Leishmania donovani, 72 h): 0.732 µM
COc1cc([C@@H]2c3cc4c(cc3[C@H](O)[C@H]3COC(=O)[C@H]23)OCO4)cc(OC)c1OC [Podophyllotoxin, reference compound]	–	–	–	–	–	IC50 (Rat Myoblast L6 Cells; Rattus norvegicus, L6, 72 h, read-out: IC50 Rat Myoblast L6 Cells): 0.022 µM
